From patent US12447163B2, “Liposomal formulations of Bcl inhibitors” (Jazz Pharmaceuticals Therapeutics, Inc., priority 2021, dated 2025)

Test system: platelet count
Assay: Platelet count (thrombocytopenia / platelet protection) after administration of liposomal formulations or free drug
Format: in vivo, Female B6D2F1/J mice
Conditions: liposomal formulations at various doses or free drug, FIG. 7F
Protocol: Female B6D2F1/J mice were purchased from Jackson Laboratory and acclimated 7 days prior to study start. Mice were caged in autoclaved Allentown ventilated caging at a capacity of 3 animals/cage during the course of the experiment. Cages were changed bi-weekly. Environmental enrichment that was supplied for cages were Nestlets from Ancare, transparent tinted polycarbonate Mouse Igloos from Bio-Serv on Envigo 7097¼″ corn cob bedding. All enrichment was added to the cage prior to the cages being autoclaved. Mice were fed Envigo Teklad Global Rodent Diet 2018. The rodent food was kept in the hoppers of the wire lids and was changed bi-weekly. Reverse osmosis water was supplied through Avidity Science automatic watering valves at a flow rate of 25-50 ml/min. Environmental control of the lights and monitoring of temperature, humidity and airflow was done by WatchDog. Light cycles in the animal holding rooms was set for 12 hours on and 12 hours off. Temperature, humidity and airflow were maintained and controlled by BCCRC facilities.
Mice were injected with the required volume to administer the prescribed dose (10 mg/kg) to the animals based on individual mouse weights using a 28 G needle. The injection volume was 200 μL/20 g mouse. The mice were briefly (less than 30 sec.) restrained during i.v. injections. […]

CN(C)CC[C@H](CSc1ccccc1)Nc1ccc(S(=O)(=O)NC(=O)c2ccc(N3CCN(Cc4ccccc4-c4ccc(Cl)cc4)CC3)cc2)cc1[N+](=O)[O-] [Compound 7]
tolerability (platelet count): well tolerated at the tested doses
